Test results published in patent publication US20250339391A1, “METHODS FOR EFFECTIVE MANAGEMENT OF PAIN” (South Rampart Pharma, Inc., priority 2024, published 2025).

Experiment: LC-MS/MS detection of D10-SRP-001 in rat brain (PAG)
Type: in vivo
Conditions: 30 min after IP injection
Procedure: Deuterated compound D10-SRP-001 was synthesized by Olon Ricerca Bioscience (Concord, OH), and purity was determined to be >99.9% by HPLC. This was used as pure analytical standard for detection of SRP-001 using an LC-MS/MS method. Similarly, pure analytical standard of AM404 (10 ng/mL) obtained from Cayman Chemical (Ann Arbor, MI) was used to characterize the full fragmentation pattern of AM404. […] Thirty min post-injection, the animals were sacrificed (same as in the CFA/von Frey model), their brains harvested, and the midbrain periaqueductal gray (PAG) region excised. SRP-001 or AM404 were extracted from the PAG using a liquid-liquid extraction method using 1:1 MeOH:H2O for LC-MS/MS and were loaded onto a liquid chromatography-tandem mass spectrophotometer for analysis. The mass spectrophotometer was operated in multiple reaction monitoring (MRM) mode using positive ion electrospray. D10-SRP-001 was detected by monitoring the m/z transition 416→186. AM404 was detected by monitoring the m/z transition 396→287.

[2H]C([2H])([2H])C([2H])([2H])N(C(=O)c1ccccc1S(=O)(=O)NCC(=O)Nc1ccc(O)cc1)C([2H])([2H])C([2H])([2H])[2H] [D10-SRP-001]
detection in the brain: detected in the brain
